The target in test [1] is T1, AtPFA-DSP1^49–215 (Arabidopsis thaliana, UniProt Q9ZVN4, C150S).
T1 construct: core catalytic domain, residues 49-215; N-terminal 6xHis-MBP tag cut with TEV protease; E. coli; monomer in solution
Briefly: X-ray crystal structure (soak). In kind it is binding. Conditions: active site.

The target in test [2] is T2, AtPFA-DSP1 (full-length) (Arabidopsis thaliana, UniProt Q9ZVN4).
T2 construct: full-length (codon-optimized cDNA, Genscript); pDest-566, N-terminal 6xHis-MBP tag cut with TEV protease; E. coli
T2 sequence (Q9ZVN4 whole entry): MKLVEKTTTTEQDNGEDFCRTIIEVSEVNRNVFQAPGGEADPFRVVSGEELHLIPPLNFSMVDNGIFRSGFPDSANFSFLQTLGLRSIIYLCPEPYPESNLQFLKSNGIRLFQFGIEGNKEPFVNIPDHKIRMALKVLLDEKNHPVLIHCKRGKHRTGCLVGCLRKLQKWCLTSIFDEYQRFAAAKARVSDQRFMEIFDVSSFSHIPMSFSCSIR
Briefly: malachite green Pi release. In kind it is biochemical. The settings on record: pH 7.2, 30 °C, 100 mM KCl, 0.8 mM MgCl2.

T1 sequence (Q9ZVN4 49-215 C150S): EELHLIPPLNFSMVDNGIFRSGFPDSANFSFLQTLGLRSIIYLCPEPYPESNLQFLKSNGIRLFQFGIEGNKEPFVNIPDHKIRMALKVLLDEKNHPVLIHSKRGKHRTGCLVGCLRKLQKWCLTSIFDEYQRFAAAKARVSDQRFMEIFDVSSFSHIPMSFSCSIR

`O=P(O)(O)O[C@H]1[C@@H](OP(=O)(O)O)[C@H](OP(=O)(O)O)[C@@H](OP(=O)(O)OP(=O)(O)O)[C@H](OP(=O)(O)O)[C@H]1OP(=O)(O)O` [5-InsP7, 5-diphosphoinositol 1,2,3,4,6-pentakisphosphate]: the “X-ray crystal structure (soak)” value in test [1] (substrate-trapping mutant, displaces Pi) was “it could now be successfully substituted by 5-InsP7”.
As to `O=P(O)(O)O[C@@H]1[C@@H](OP(=O)(O)OP(=O)(O)O)[C@H](OP(=O)(O)O)[C@@H](OP(=O)(O)O)[C@@H](O)[C@H]1OP(=O)(O)O` [5-PP-InsP4, 5-diphosphoinositol 1,3,4,6-tetrakisphosphate], the “X-ray crystal structure (soak)” value in test [1] (beta-IN and beta-OUT poses, the latter together with Pi) is on record as “instructive crystals of AtPFA-DSP1 in complex with 5-PP-InsP4”.
For the compound `O=P(O)(O)O[C@H]1[C@@H](OP(=O)(O)O)[C@@H](OP(=O)(O)O)[C@H](OP(=O)(O)OP(=O)(O)O)[C@@H](OP(=O)(O)O)[C@@H]1OP(=O)(O)O` [6-InsP7, 6-diphosphoinositol 1,2,3,4,5-pentakisphosphate], in test [2], the Km entry is recorded as “(c), 6-InsP7”.

(Values after publication PMC9038691, “A structural exposé of noncanonical molecular reactivity within the protein tyrosine phosphatase WPD loop” (Nature communications, 2022).)
